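Cultured in 96-well plates, cells were exposed to test compound for 48 hours across five concentrations. TGI denotes the concentration required for complete inhibition of growth.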

Common to all, as to assay: NCI-60 cell line screen, 48 h
Assay [1] deals with CCRF-CEM leukemia.
Assay [2] concerns HOP-62 NSCLC.
In assay [3] the test system is SK-MEL-2 melanoma.
Assay [4] relates to OVCAR-8 ovarian.
Assay [5] has as its system SW-620 colon.

Regarding `O=[S@]1c2ccc3ccccc3c2N[C@@H]2[C@H]1[C@H]1C=C[C@@H]2C1`, the TGI is 68.4 µM in assay [1]; over 100 µM in assay [2]; over 100 µM in assay [3]; over 100 µM in assay [4]; over 100 µM in assay [5].
On to `CSc1nc2c(c(=O)n1C)N=C(c1ccc([N+](=O)[O-])cc1)CC(c1ccccc1)N2` (stereo not given), for which the TGI in assay [1], in assay [2], in assay [3], in assay [4] and in assay [5] was over 100 µM in each case.
In the case of `COc1ccccc1C(O)[C@@H]1C[C@@H]2[C@H]3CC[C@@](C)([C@@H]2O1)C3(C)C` (stereo not given in full), the TGI was found to be 44.1 µM in assay [1]; 35.1 µM in assay [2]; 34.3 µM in assay [3]; 38.9 µM in assay [4]; 37.9 µM in assay [5].
For `Clc1ccc(CCN[C@H]2CCCC[C@H]2N2CCCC2)cc1Cl`, in that order: over 100 µM, 48.2 µM, 44.1 µM, over 100 µM and over 100 µM.
For `COc1ccc2c(c1)CCCN1CCc3ccccc3C21` (stereo not given), the TGI in assay [1], in assay [2], in assay [3], in assay [4] and in assay [5] was over 100 µM each time.
With `CCCc1cc(COC)c(C#N)c(=O)[nH]1`, the TGI in assay [1], in assay [2], in assay [4] and in assay [5] was over 100 µM in each case.
Take `O=C(/C=C/c1ccccc1)Nc1ccccc1SCCCCl`: the TGI in assay [1] was over 100 µM; in assay [2], over 100 µM; in assay [3], over 100 µM; in assay [4], over 69.8 µM; in assay [5], over 62.4 µM.
On to `CCOC(=O)/C=C(/C(=O)OCC)n1ccc(=O)n(Cc2cnnn2COCCOC(C)=O)c1=O`, for which the TGI in assay [1] was 3.57 µM; in assay [2], over 100 µM; in assay [3], 41.9 µM; in assay [4], 30.6 µM; in assay [5], 14.2 µM.
For `COc1ccc(-c2c3c(n(C4OC(CO)C(O)C(O)C4O)c(=S)c2C#N)CCCC3)cc1` (stereo not given), the TGI in assay [1], in assay [2], in assay [3], in assay [4] and in assay [5] was over 100 µM throughout.
Regarding `Cc1ccc2c(=O)cc(-c3ccc4ccccc4c3)[nH]c2n1`, the TGI in assay [1] was 14.6 µM; in assay [2], over 100 µM; in assay [3] it was over 100 µM; in assay [4], over 100 µM; in assay [5], over 100 µM.
For the compound `O=[N+]([O-])c1ccc(-n2nc3ccc4c(no[n+]4[O-])c3n2)cc1`, the TGI in assay [1], in assay [2], in assay [3], in assay [4] and in assay [5] was over 100 µM throughout.
With `COc1ccc(N=NC(=O)NC(CC(C)C)C(=O)NCC(=O)O)cc1` (stereo not given), the TGI in assay [1], in assay [2], in assay [3], in assay [4] and in assay [5] was over 100 µM each time.
On to `CC(C)CC(N)C(=O)Nc1ccc2ccccc2c1` (stereo not given), for which the TGI in assay [1], in assay [2], in assay [3], in assay [4] and in assay [5] was over 100 µM each time.
With `CCC1(c2ccc(N3C(=O)c4cc(OC)c(OC)cc4C3=O)cc2)CCC(=O)NC1=O` (stereo not given), the TGI in assay [1], in assay [2], in assay [3], in assay [4] and in assay [5] was over 10 µM in each case.
Regarding `CCCCc1ccc(Nc2nc(OC)c3ncn(C4CC(O)C(CO)O4)c3n2)cc1` (stereo not given), the TGI worked out at 34.9 µM in assay [1]; 94.7 µM in assay [2]; 47.5 µM in assay [3]; 35.2 µM in assay [4]; 39.8 µM in assay [5].
With `O=C1CC(CC(=O)c2ccc(Br)cc2)C(=O)/C1=C(/O)c1ccc(Br)cc1` (stereo not given), the TGI in assay [1], in assay [2], in assay [3], in assay [4] and in assay [5] was over 100 µM each time.
For the compound `CC(C)(Cl)C(Br)CCC(Br)(CCl)C(Cl)CBr` (stereo not given), the TGI in assay [1], in assay [2], in assay [3], in assay [4] and in assay [5] was over 10 µM in each case.
As for `Nc1nc(NCCCO)cc(=O)[nH]1`, the TGI in assay [1], in assay [2], in assay [3], in assay [4] and in assay [5] was over 100 µM in each case.
As to `Cc1cc2nc3ccccc3n2c2nc(N)ccc12`, the TGI in assay [1] is over 100 µM; in assay [2], over 100 µM; in assay [3], over 100 µM; in assay [4], 80.4 µM; in assay [5], over 100 µM.
Regarding `CN(CCCNC(=O)c1cn(C)c2c1Cc1ccccc1-2)CCCNC(=O)c1cn(C)c2c1Cc1ccccc1-2`, the TGI came to 17.2 µM in assay [1]; 29.2 µM in assay [2]; 30.6 µM in assay [3]; 29.8 µM in assay [4]; 18.5 µM in assay [5].
For `Cc1ccc2c(=O)cc(-c3ccc(C)s3)[nH]c2n1`, the TGI was over 100 µM in assay [2], over 100 µM in assay [3] and over 28.3 µM in assay [4].
Regarding `CCOC(=O)c1c(NC(=S)Nc2ccc(Cl)cc2)sc2c1CCN(C)C2`, the TGI in assay [1], in assay [2], in assay [3] and in assay [4] was over 100 µM throughout.
On to `CC(=O)OCC1OC(n2c3c(c(-c4ccc(Cl)cc4)c(C#N)c2=S)CCCC3)C(OC(C)=O)C(OC(C)=O)C1OC(C)=O` (stereo not given), for which the TGI in assay [1] is over 100 µM; in assay [2] it was over 100 µM; in assay [3], 63.3 µM; in assay [4], over 100 µM.
Take `COc1cccc(C2c3cc4c(cc3OC(NNS(=O)(=O)c3ccc(C)cc3)C2C)OCO4)c1OC` (stereo not given): the TGI in assay [1] was 5.31 µM; in assay [2], 9.06 µM; in assay [3] it was 7.18 µM; in assay [4] it was over 100 µM; in assay [5], over 100 µM.
Regarding `C=C1C(=O)O[C@H]2C1C[C@@H](OC(C)=O)/C(C)=C/CC[C@@]1(C)O[C@H]21` (stereo not given in full), the TGI in assay [1] came to 4.75 µM; in assay [2], 34.5 µM; in assay [3] it was 57.9 µM; in assay [4] it was 32.5 µM; in assay [5], 20.4 µM.
For `CC(=O)O[C@H]1C(=O)[C@@]2(C)[C@H]([C@H](OC(=O)c3ccccc3)[C@]3(O)C[C@H](OC(=O)[C@H](O)[C@@H](NC(=O)c4ccco4)c4ccccc4)C(C)=C1C3(C)C)[C@]1(OC(C)=O)CO[C@@H]1C[C@@H]2O`, the TGI in assay [1] was 0.0073 µM; in assay [2], over 12.5 µM; in assay [4], over 12.5 µM; in assay [5], over 12.5 µM.
As to `CC(=O)c1ccc2c(c1)CC1(C2)Cc2cc3c(c(C(=O)O)c2C1)CCC3` (stereo not given), the TGI in assay [1], in assay [2], in assay [4] and in assay [5] was over 100 µM each time.
With `CCC(C)[C@@H](Nc1c(O)c2c(c(O)c1Cl)C(=O)C=CC2=O)C(=O)OC` (stereo not given in full), the TGI was 4.98 µM in assay [1]; over 10 µM in assay [2]; over 10 µM in assay [3]; over 10 µM in assay [4]; over 10 µM in assay [5].
As to `COc1cc2c(c(OC)c1OC)-c1ccc(SC)c(=O)cc1[C@@H](O)CC2`, the TGI in assay [1], in assay [2] and in assay [5] was over 100 µM in each case.
Consider `Cc1cc(=O)oc2cc(OCC(O)COC(C)C)ccc12` (stereo not given), for which the TGI in assay [1], in assay [2], in assay [4] and in assay [5] was over 100 µM each time.
In the case of `COC(=O)CCNC(=O)OCc1ccccc1`, the TGI in assay [1], in assay [2], in assay [3], in assay [4] and in assay [5] was over 100 µM each time.
Turning to `CN(C)c1c(C2OC(CO)C(O)C2O)c(=O)c1=O` (stereo not given), the TGI in assay [1], in assay [2], in assay [3], in assay [4] and in assay [5] was over 100 µM in each case.
With `C=CC1CN(C(=O)OCC)N(C(=O)OCC)C1CCc1ccccc1` (stereo not given), the TGI in assay [1], in assay [2], in assay [3] and in assay [4] was over 100 µM throughout.
Turning to `CN(C)N1C(=O)S/C(=C\c2ccc([N+](=O)[O-])cc2)C1=O`, the TGI in assay [1], in assay [2], in assay [3] and in assay [4] was over 100 µM each time.
With `OC(CN(CCCl)CCCl)C(O)C(O)C(O)CN(CCCl)CCCl` (stereo not given), the TGI in assay [1], in assay [2], in assay [3], in assay [4] and in assay [5] was over 100 µM throughout.
For the compound `[B-][P+](CC[P+]1([B-])[C@@H](C)[C@@H](O)[C@H](O)[C@@H]1C)(c1ccccc1)c1ccccc1OC` (stereo not given in full), the TGI in assay [1] was 46.4 µM; in assay [2], 33.6 µM; in assay [3] it was 30.2 µM; in assay [4], 31.5 µM; in assay [5], 31.9 µM.
The like results for `NC1CCC(N(CC(=O)O)CC(=O)O)C(N(CC(=O)O)CC(=O)O)C1` (stereo not given) were, in that order, over 100 µM, over 100 µM, over 100 µM, over 100 µM and over 100 µM.
For `CC(Nc1ccc(Cl)c(Cl)c1)c1ccncc1` (stereo not given), in that order: over 100 µM, 49.7 µM, 55.6 µM, 76.2 µM and 78.5 µM.
Regarding `COC1CC(OC2C(C)OC(OC3C(C)OC(OC4C(C)OC(O[C@H]5CC[C@@]6(C)C(=CC[C@]7(O)[C@@H]6C[C@@H](OC(C)=O)[C@@]6(C)[C@]7(O)CC[C@@]6(O)C(C)=O)C5)CC4OC)CC3OC)CC2OC)OC(C)C1O` (stereo not given in full), the TGI in assay [1], in assay [2], in assay [3], in assay [4] and in assay [5] was over 25 µM in each case.
For the compound `Cc1ccc(C)n2c1nc1ccccc12`, the TGI in assay [1], in assay [2], in assay [4] and in assay [5] was over 100 µM each time.
Regarding `Nc1ncnc2c1ncn2C1CCC(CP(=O)(O)O)C1` (stereo not given), the TGI in assay [2], in assay [3], in assay [4] and in assay [5] was over 100 µM throughout.
`COc1cccc(/C=C2\S/C(=N/Nc3nc(C)c(C)s3)NC2=O)c1O`: the TGI in assay [2], in assay [3], in assay [4] and in assay [5] was over 100 µM in each case.
With `Cc1cccc2sc(-c3ccc(O)cc3)nc12`, the TGI was 49.6 µM in assay [1], 33.7 µM in assay [3], 31.8 µM in assay [4] and 23.7 µM in assay [5].
Turning to `CCOC(=O)NC(Nc1ccc(F)cc1)(C(=O)OCC)C(F)(F)F` (stereo not given), the TGI in assay [1] is over 23.9 µM; in assay [2], over 100 µM; in assay [4], over 100 µM; in assay [5], over 100 µM.
As for `COc1c(C(=O)NCCN(CCNC(=O)c2cccc(-c3cccc(C(=O)N(C)C)c3OC)c2OC)CCNC(=O)c2cccc(-c3cccc(C(=O)N(C)C)c3OC)c2OC)cccc1-c1cccc(C(=O)N(C)C)c1OC`, the TGI in assay [1] was 72.7 µM; in assay [2], over 100 µM; in assay [4], over 100 µM; in assay [5] it was over 100 µM.
Take `O=Cc1cc(C(=O)OCc2ccccc2)n(S(=O)(=O)c2ccccc2)c1`: the TGI is over 100 µM in assay [1], 33.7 µM in assay [2], 39.6 µM in assay [3] and over 100 µM in assay [4].
As to `CCc1ccc(COC(=O)C2=C(C)NC(C)=C(C(=O)OCc3ccc(CC)cn3)C2C2=COCCO2)nc1`, the TGI is 49.8 µM in assay [1], 37.8 µM in assay [2], over 100 µM in assay [4] and 80.4 µM in assay [5].
